In patent EP0081425B1, “Pharmaceutical compositions having normolipemic properties and containing compounds of the n-substituted benzenesulfonamide type” (priority 1981, dated 1983):
Where two headings read alike, the source gives them in different places.

Test system: hyperlipidémie provoquée par l'administration de TRITON®
Test: Triton test: hyperlipidemia induced by i.v. TRITON W.R. in fasted rats
Format: in vivo, rats WISTAR mâles
Conditions: for Cholestérol total Score (par rapport au clofibrate compté pour 1) / Lipides totaux Score (par rapport au clofibrate compté pour 1) / Triglycérides Score (par rapport au clofibrate compté pour 1) / Cholestérol estérifié Score (par rapport au clofibrate compté pour 1): ratio to clofibrate of the same series; for inhibition in vivo at 250 mg/kg: Rattus norvegicus, po, blood assayed 6 h and/or 24 h later
From the text: Dans une première série d'expériences, des produits ont été testés sur une hyperlipidémie provoquée par l'administration de TRITON® selon le protocole suivant.
Les essais ont été réalisés sur des groupes de cinq rats WISTAR mâles dont le poids varie de 150 à 175 g.
Pour effectuer ces essais, on provoque une hyperlipidémie chez les animaux, au moyen du produit commercialisé par la Société ROHM and HAAS sous le nom de TRITON® W. R.
On observe, sur cette hyperlipidémie, les effets obtenus par administration des substances actives selon l'invention.
Les essais sont réalisés comme suit : • les rats sont mis à jeûner pendant 18 heures, puis on administre le TRITON® W.R. par voie intraveineuse en solution aqueuse à 10 % à raison de 200 mg/kg ;
6 heures et/ou 24 heures plus tard, on effectue les dosages sur le sang de façon traditionnelle.
Dans la première colonne, on a indiqué le numéro du composé testé.
Dans la deuxième colonne, on a indiqué le nombre d'animaux qui ont été soumis au test.
Dans les quatre dernières colonnes, on a indiqué les résultats relatifs respectivement : • aux lipides totaux, • aux triglycérides, • au cholestérol total, • au cholestérol estérifié.
Dans chacune de ces colonnes, on indique : • a) le pourcentage de diminution par rapport au témoin TRITON; • b) le score par rapport au clofibrate de référence, c'est-à-dire le rapport de l'intensité de l'activité du produit testé vis-à-vis de celle,de l'activité au clofibrate comptée pour 1.

[1] = 250 mg/kg oral, given with TRITON W.R. 200 mg/kg i.v., read-out: Cholestérol estérifié % (pourcentage de diminution par rapport au témoin TRITON)
[2] = 250 mg/kg oral, given with TRITON W.R. 200 mg/kg i.v., read-out: Cholestérol total % (pourcentage de diminution par rapport au témoin TRITON)
[3] = 250 mg/kg oral, given with TRITON W.R. 200 mg/kg i.v., read-out: Triglycérides % (pourcentage de diminution par rapport au témoin TRITON)
[4] = read-out: Lipides totaux % (pourcentage de diminution par rapport au témoin TRITON), 250 mg/kg oral, given with TRITON W.R. 200 mg/kg i.v.

Row | SMILES | Cholestérol total Score (par rapport au clofibrate compté pour 1) (250 mg/kg oral) | Lipides totaux Score (par rapport au clofibrate compté pour 1) (250 mg/kg oral) | Triglycérides Score (par rapport au clofibrate compté pour 1) (250 mg/kg oral) | inhibition in vivo at 250 mg/kg [1] [%] | inhibition in vivo at 250 mg/kg [2] [%] | inhibition in vivo at 250 mg/kg [3] [%] | inhibition in vivo at 250 mg/kg [4] [%] | Cholestérol estérifié Score (par rapport au clofibrate compté pour 1) (250 mg/kg oral)
1 | CCC(CO)NS(=O)(=O)c1cc(N)ccc1OC (stereo not shown) [Composé n° 315] | 1,83 | 3,61 | 0,53 | 0.8 | 17.4 | 38.1 | 49.8 | 
2 | COc1ccc(Cl)cc1S(=O)(=O)NCC(C)O (stereo not shown) [Composé n° 318] | 1,55 | 0,77 |  | 32 | 14.7 | 0 | 10.7 | 0,65
3 | COc1cc(N)c(Cl)cc1S(=O)(=O)NCC(C)O (stereo not shown) [Composé n° 323] | 4,26 | 1,23 |  | 62.9 | 39.2 | 53 | 55.2 | 1,44
4 | COc1ccc([N+](=O)[O-])cc1S(=O)(=O)NCCO [compound 279] |  |  | 0,20 | 0 | 0 | 10.2 |  | 
5 | COc1cc(N)ccc1S(=O)(=O)NCC(C)O (stereo not shown) [compound 320] | 1,61 | 1,48 | 0,91 | 16.7 | 15.3 | 66.1 | 20.5 | 0,34
6 | COc1ccc([N+](=O)[O-])cc1S(=O)(=O)NCC(C)O (stereo not shown) [compound 321] | 1,44 | 2,84 | 1,05 | 46.7 | 13.7 | 76 | 39.2 | 0,95
7 | COc1cc([N+](=O)[O-])ccc1S(=O)(=O)NCCO [compound 277] | 0,18 |  | 0,38 | 2.9 | 3.2 | 19.7 | 0 | 0,08
8 | COc1cc(N)ccc1S(=O)(=O)N(C)CCO [compound 326] | 0,41 | 0,71 |  | 29 | 3.8 | 20.3 | 31.9 | 0,67
9 | COc1cc([N+](=O)[O-])c(Cl)cc1S(=O)(=O)N(C)CCO [compound 329] |  | 0,84 |  | 0 | 0 | 40 | 37.6 | 
10 | COc1ccc(N)cc1S(=O)(=O)N(C)CCO [compound 328] |  | 0,46 |  | 0 | 0 | 0 | 20.7 | 
11 | CCC(CO)NS(=O)(=O)c1cc(Cl)ccc1OC (stereo not shown) [Composé n° 311] |  | 0,69 |  | 0 | 0 | 0 | 17.6 | 
12 | COc1ccc(Cl)cc1S(=O)(=O)NCCO [Composé n° 276] | 0,25 |  | 0,48 | 0 | 4.4 | 24.8 |  | 
13 | COc1ccc([N+](=O)[O-])cc1S(=O)(=O)N(C)CCO [compound 327] |  | 0,53 |  | 0 | 0 | 9 | 23.6 | 
14 | COc1ccc(N)cc1S(=O)(=O)NCCO [compound 280] | 0,11 |  |  | 2.9 | 1.9 | 0 |  | 0,08
15 | COc1cc(N)c(Cl)cc1S(=O)(=O)NCCO [compound 282] | 0,75 | 0,26 | 0,42 | 15.5 | 13.3 | 21.6 | 12 | 0,46
16 | CCC(CO)NS(=O)(=O)c1ccc([N+](=O)[O-])cc1OC (stereo not shown) [compound 312] |  | 1,79 |  | 54.1 | 55.1 | 0 | 45.4 | 
17 | COc1cc([N+](=O)[O-])ccc1S(=O)(=O)NCC(C)O (stereo not shown) [compound 319] | 0,17 | 1,55 | 0,78 | 16.4 | 1.6 | 56.5 | 21.4 | 0,33
18 | CCC(CO)NS(=O)(=O)c1cc(Br)ccc1OC (stereo not shown) [Composé n° 645] | 1,54 | 3,62 | 1,21 | 19.4 | 32.6 | 36.8 | 42.3 | 0,50
19 | CCC(CO)NS(=O)(=O)c1cc(Cl)c(N)cc1OC (stereo not shown) [compound 317] | 0,17 | 3,11 |  | 25.4 | 1.6 | 0 | 42.9 | 0,52
20 | CCC(CO)NS(=O)(=O)c1ccc(N)cc1OC (stereo not shown) [compound 313] |  | 0,77 |  | 39.4 | 39.3 | 0 | 19.4 | 
21 | COc1cc(N)ccc1S(=O)(=O)NCCO [compound 278] |  |  |  | 22 | 0 | 4.5 |  | 0,65
22 | COc1cc([N+](=O)[O-])c(Cl)cc1S(=O)(=O)NCC(C)O (stereo not shown) [compound 322, chloro-5 N-(hydroxy-2 propyl) méthoxy-2 nitro-4 benzènesulfonamide] | 0,83 | 3,15 | 1,02 | 13.1 | 7.9 | 73.4 | 43.5 | 0,27
23 | CCC(CO)NS(=O)(=O)c1cc([N+](=O)[O-])ccc1OC (stereo not shown) [compound 314] |  | 1,02 | 0,04 | 44 | 42.1 | 1.2 | 25.9 | 
24 | COc1cc([N+](=O)[O-])c(Cl)cc1S(=O)(=O)NCCO [compound 281, chloro-5 N-(hydroxy-2 éthyl) méthoxy-2 nitro-4 benzènesulfonamide] | 0,75 | 0,25 |  | 4.9 | 13.3 | 0 | 11.3 | 0,13
